Results on 23 compounds are retold here after patent US20240009175A9, “TETRAZOLE DERIVATIVES” (Merck Patent GmbH, priority 2020, published 2024).

Broadly, the IC50 is the concentration that gives 50% inhibition.

Molecules are shown by their SMILES.

In data set [1] the target is ACSS2 (Homo sapiens (Human), UniProt Q9NR19). As to the kind of experiment: Cellular assay of 14C acetate incorporation into histones (IC50 ACSS2 cellular histone). Format: cell-based. The settings on record: HCT-15 cells. The method in brief: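 HCT-15 cells preincubated 1 h with compound (0.25% DMSO), then pulsed 3 h with 14C-acetate in full DMEM/10% FBS. Histones acid-extracted (0.2 M HCl, overnight, 4 °C) after Triton lysis in sodium butyrate buffer; incorporated 14C counted by scintillation (CPM) to give IC50.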
ACSS2, sequence (Q9NR19 whole entry): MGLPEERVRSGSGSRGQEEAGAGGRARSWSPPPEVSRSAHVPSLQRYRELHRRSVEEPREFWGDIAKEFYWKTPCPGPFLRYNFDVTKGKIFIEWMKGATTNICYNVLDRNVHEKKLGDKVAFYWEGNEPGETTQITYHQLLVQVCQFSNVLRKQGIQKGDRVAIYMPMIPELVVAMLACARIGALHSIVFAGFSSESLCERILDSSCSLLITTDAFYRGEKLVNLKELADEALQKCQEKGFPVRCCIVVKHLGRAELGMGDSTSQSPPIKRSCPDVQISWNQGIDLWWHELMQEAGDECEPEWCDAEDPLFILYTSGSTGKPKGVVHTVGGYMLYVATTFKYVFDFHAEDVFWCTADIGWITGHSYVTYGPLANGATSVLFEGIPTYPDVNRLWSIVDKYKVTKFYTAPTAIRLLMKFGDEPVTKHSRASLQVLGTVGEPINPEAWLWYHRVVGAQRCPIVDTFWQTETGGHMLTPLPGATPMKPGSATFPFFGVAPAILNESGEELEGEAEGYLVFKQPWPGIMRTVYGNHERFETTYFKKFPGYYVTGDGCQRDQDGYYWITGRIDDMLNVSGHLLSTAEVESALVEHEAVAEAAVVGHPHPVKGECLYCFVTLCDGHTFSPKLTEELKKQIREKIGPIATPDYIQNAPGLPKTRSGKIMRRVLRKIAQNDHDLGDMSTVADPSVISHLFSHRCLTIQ

The subject of data set [2] is CHO-K1 cells. As to the kind of experiment: Micronucleus assay (MNT) in vitro. The data set is classed as cell-based. The arrangement: key: A: negative, putative negative (micronuclei detected beyond threshold of 60% cyctotoxicity); B: positive. Particulars: 24 hrs treatment, 0.2 μM to 100 μM.
Data set [3] deals with human rec ACSS2 (Homo sapiens (Human), UniProt Q9NR19). As to the kind of experiment: Biochemical activity ACSS2 assay (AMP-Glo). The settings on record: human recombinant ACSS2, AMP-Glo, 180 min at 37° C. The method in brief: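 1 nM C-term myc-tagged recombinant human ACSS2 with 100 μM ATP, 100 μM Coenzyme A and 500 μM acetate (final concentrations), pH 7.5, 180 min at 37° C, compound from 30 μM over 10 concentrations. Released AMP quantified by AMP-Glo luminescence; zero set with 5 μM reference ACSS2 inhibitor, IC50 derived.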
human rec ACSS2, sequence (Q9NR19 whole entry): as above

In the case of `CCn1c(C(O)(c2ccccc2)c2cccs2)nc2nc(OC)c(-c3nnn[nH]3)cc21` (racemic) [Compound 35, [1-ethyl-5-methoxy-6-(1H-1,2,3,4-tetrazol-5-yl)-1H-imidazo[4,5-b]pyridin-2-yl](phenyl)(thiophen-2-yl)methanol], the IC50 in data set [1] and in data set [3] was 1 to 10 nM in each case. For the same compound, the MNT entry in data set [2] is listed as “A”.

In the case of `CCn1c(C(O)(c2ccccc2)c2ncccn2)nc2nc(OC)c(-c3nnn[nH]3)cc21` (racemic) [Compound 37, [1-ethyl-5-methoxy-6-(1H-1,2,3,4-tetrazol-5-yl)-1H-imidazo[4,5-b]pyridin-2-yl](phenyl)(pyrimidin-2-yl)methanol], the IC50 in data set [1] and in data set [3] was 1 to 10 nM in each case. Moreover, the MNT entry in data set [2] is reported as “A”.

With `CCn1c(C(O)(c2ccccc2)c2ccccn2)nc2nc(OC)c(-c3nnn[nH]3)cc21` (racemic) [Compound 50, [1-ethyl-5-methoxy-6-(1H-1,2,3,4-tetrazol-5-yl)-1H-imidazo[4,5-b]pyridin-2-yl](phenyl)(pyridin-2-yl)methanol], the results for the IC50 in data set [1] and in data set [3] were 0.01 to 1 nM and 1 to 10 nM, respectively. In data set [2], the MNT entry is recorded as “A”.

Consider `CCc1c(C(O)(c2ccccc2)c2ccccn2)nc2cc(OC)c(-c3nnn[nH]3)cn12` (single isomer, unassigned) [Compound 11, [3-Ethyl-7-methoxy-6-(1H-tetrazol-5-yl)-imidazo[1,2-a]pyridin-2-yl]-phenyl-pyridin-2-yl-methanol], for which the IC50 in data set [1] was 10 to 100 nM; in data set [3], 1 to 10 nM. In addition, in data set [2], the MNT result was “A”.

Regarding `CCn1c(C(O)(c2ccccc2)c2ccccn2)nc2nc(OC)c(-c3nnn[nH]3)cc21` (single isomer, unassigned) [Compound 40, [1-ethyl-5-methoxy-6-(1H-1,2,3,4-tetrazol-5-yl)-1H-imidazo[4,5-b]pyridin-2-yl](phenyl)(pyridin-2-yl)methanol], the IC50 fell in the range of 0.01 to 1 nM in data set [1] and 1 to 10 nM in data set [3]. Besides, the MNT result in data set [2] is recorded as “A”.

In the case of `CCc1c(C(O)(c2ccccc2)c2ccccc2)nc2cc(OC)c(-c3nnn[nH]3)cn12` [Compound 2, [3-Ethyl-7-methoxy-6-(1H-tetrazol-5-yl)-imidazo[1,2-a]pyridin-2-yl]-diphenyl-methanol], the IC50 in data set [1] and in data set [3] was 1 to 10 nM throughout. The MNT result in data set [2] is on record as “A”.

`CCc1c(C(O)(c2ccccc2)c2ccccc2)nc2cc(F)c(-c3nnn[nH]3)cn12` [Compound 3, [3-Ethyl-7-fluoro-6-(1H-tetrazol-5-yl)-imidazo[1,2-a]pyridin-2-yl]-diphenyl-methanol]: the results for the IC50 in data set [1] and in data set [3] were 100 to 10000 nM and 1 to 10 nM, respectively. For the same compound, the MNT entry in data set [2] is given as “A”.

For `CCc1c(C(O)(c2ccccc2)c2ccccc2)nc2ccc(-c3nnn[nH]3)cn12` [Compound 4, [3-Ethyl-6-(1 H-tetrazol-5-yl)-imidazo[1,2-a]pyridin-2-yl]-diphenyl-methanol], the IC50 fell in the range of 100 to 10000 nM in data set [1] and 10 to 100 nM in data set [3]. Also, the MNT entry in data set [2] is on record as “A”.

Regarding `CCc1c(C(O)(c2ccccc2F)c2ccccc2F)nc2cc(Cl)c(-c3nnn[nH]3)cn12` [Compound 5, [7-Chloro-3-ethyl-6-(1H-tetrazol-5-yl)-imidazo[1,2-a]pyridin-2-yl]-bis-(2-fluoro-phenyl)-methanol], the concentration for half-maximal inhibition (IC50) fell in the range of 100 to 10000 nM in data set [1] and 1 to 10 nM in data set [3]. The MNT entry in data set [2] was “A”.

Consider `CCc1c(C(O)(c2ccccc2F)c2ccccc2F)nc2cc(OC)c(-c3nnn[nH]3)cn12` [Compound 6, [3-Ethyl-7-methoxy-6-(1H-tetrazol-5-yl)-imidazo[1,2-a]pyridin-2-yl]-bis-(2-fluoro-phenyl)-methanol], for which the IC50 in data set [1] and in data set [3] was 1 to 10 nM in each case. For the same compound, in data set [2], the MNT result is “A”.

On to `CCc1c(C(O)(c2ccccc2)c2ccccc2)nc2cc(Cl)c(-c3nnn[nH]3)cn12` [Compound 9, [7-Chloro-3-ethyl-6-(1H-tetrazol-5-yl)-imidazo[1,2-a]pyridin-2-yl]-diphenyl-methanol], for which the IC50 in data set [1] lay within 100 to 10000 nM; in data set [3] it was 1 to 10 nM. The MNT entry in data set [2] is on record as “A”.

Turning to `CCc1c(C(O)(c2ccccc2F)c2ccccc2F)nn2cc(OC)c(-c3nnn[nH]3)cc12` [Compound 19, [3-Ethyl-6-methoxy-5-(1H-tetrazol-5-yl)-pyrazolo[1,5-a]pyridin-2-yl]-bis-(2-fluoro-phenyl)-methanol], the 50% inhibitory concentration (IC50) in data set [1] fell in the range of 10 to 100 nM; in data set [3], 1 to 10 nM. The MNT entry in data set [2] is on record as “A”.

As to `CCc1c(C(O)(c2ccccc2)c2ccccc2)nn2cc(Cl)c(-c3nnn[nH]3)cc12` [Compound 21, [6-Chloro-3-ethyl-5-(1H-tetrazol-5-yl)-pyrazolo[1,5-a]pyridin-2-yl]-diphenyl-methanol], the concentration for half-maximal inhibition (IC50) in data set [1] lay in the range of 10 to 100 nM; in data set [3] it was 1 to 10 nM. Moreover, the MNT result in data set [2] is on record as “A”.

For `CCc1c(C(O)(c2ccccc2)c2ccccc2)nn2cc(OC)c(-c3nnn[nH]3)cc12` [Compound 22, [3-Ethyl-6-methoxy-5-(1H-tetrazol-5-yl)-pyrazolo[1,5-a]pyridin-2-yl]-diphenyl-methanol], the concentration for half-maximal inhibition (IC50) in data set [1] and in data set [3] was 1 to 10 nM each time. In addition, the MNT result in data set [2] is on record as “A”.

`COc1nc2nc(C(O)(c3ccccc3)c3ccccc3)n(CCO)c2cc1-c1nnn[nH]1` [Compound 34, 2-[2-(hydroxy-diphenylmethyl)-5-methoxy-6-(1H-1,2,3,4-tetrazol-5-yl)-1H-imidazo[4,5-b]pyridin-1-yl]ethan-1-ol]: the half-maximal inhibitory concentration (IC50) in data set [1] fell in the range of 100 to 10000 nM; in data set [3], 1 to 10 nM. The MNT result in data set [2] was “A”.

Take `CCn1c(C(O)(c2cccs2)c2cccs2)nc2nc(OC)c(-c3nnn[nH]3)cc21` [Compound 38, [1-ethyl-5-methoxy-6-(1H-1,2,3,4-tetrazol-5-yl)-1H-imidazo[4,5-b]pyridin-2-yl]bis(thiophen-2-yl)methanol]: the results for the IC50 in data set [1] and in data set [3] were 100 to 10000 nM and 1 to 10 nM, respectively. The MNT result in data set [2] is on record as “A”.

Turning to `CCn1c(C(O)(c2ccccc2)c2ccccc2)nc2nc(Cl)c(-c3nnn[nH]3)cc21` [Compound 51, [5-chloro-1-ethyl-6-(1H-1,2,3,4-tetrazol-5-yl)-1H-imidazo[4,5-b]pyridin-2-yl]diphenylmethanol], the 50% inhibitory concentration (IC50) lay in the range of 10 to 100 nM in data set [1] and 1 to 10 nM in data set [3]. Moreover, the MNT entry in data set [2] is “A”.

With `CCn1c(C(O)(c2ccccc2F)c2ccccc2F)nc2nc(OC)c(-c3nnn[nH]3)cc21` [Compound 57, [1-ethyl-5-methoxy-6-(1H-1,2,3,4-tetrazol-5-yl)-1H-imidazo[4,5-b]pyridin-2-yl]bis(2-fluorophenyl)methanol], the 50% inhibitory concentration (IC50) fell in the range of 1 to 10 nM in data set [1] and 0.01 to 1 nM in data set [3]. For the same compound, the MNT result in data set [2] is on record as “A”.

On to `CCn1c(C(O)(c2ccccc2)c2ccccc2)nc2nc(OC)c(-c3nnn[nH]3)cc21` [Compound 58, [1-ethyl-5-methoxy-6-(1H-1,2,3,4-tetrazol-5-yl)-1H-imidazo[4,5-b]pyridin-2-yl]diphenylmethanol], for which the concentration for half-maximal inhibition (IC50) in data set [1] and in data set [3] was 0.01 to 1 nM throughout. The MNT entry in data set [2] is on record as “A”.

Turning to `CCn1c(C(O)(c2ccccc2F)c2ccccc2F)nc2nc(C)c(-c3nnn[nH]3)cc21` [Compound 59, [1-ethyl-5-methyl-6-(1H-1,2,3,4-tetrazol-5-yl)-1H-imidazo[4,5-b]pyridin-2-yl]bis(2-fluorophenyl)methanol], the half-maximal inhibitory concentration (IC50) in data set [1] is 100 to 10000 nM; in data set [3], 1 to 10 nM. The MNT result in data set [2] was “A”.

Regarding `CCn1c(C(O)(c2ccccc2)c2ccccc2)nc2ncc(-c3nnn[nH]3)cc21` [Compound 60, [1-ethyl-6-(1H-1,2,3,4-tetrazol-5-yl)-1H-imidazo[4,5-b]pyridin-2-yl]diphenylmethanol], the IC50 in data set [1] lay within 100 to 10000 nM; in data set [3], 10 to 100 nM. The MNT result in data set [2] is “A”.

As to `CCn1c(C(O)(c2ccccc2)c2ccccc2)nc2nc(C)c(-c3nnn[nH]3)cc21` [Compound 62, [1-ethyl-5-methyl-6-(1H-1,2,3,4-tetrazol-5-yl)-1H-imidazo[4,5-b]pyridin-2-yl]diphenylmethanol], the IC50 lay within 100 to 10000 nM in data set [1] and 1 to 10 nM in data set [3]. For the same compound, the MNT entry in data set [2] is reported as “A”.

For `CCn1c(C(O)(c2ccccc2)c2ccccc2)nc2ccc(C(=O)NC[C@@H](C)O)cc21` [Reference Compound, 3-Ethyl-2-[hydroxy(diphenyl)methyl]-N-[(2R)-2-hydroxypropyl]benzimidazole-5-carboxamide, reference compound], the figures for the 50% inhibitory concentration (IC50) in data set [1] and in data set [3] were 0.01 to 1 nM and 100 to 10000 nM, respectively. Further, in data set [2], the MNT entry is on record as “B”.
